Measurements taken from ChEMBL document CHEMBL1201861, “Genomics of Drug Sensitity in Cancer screening data, Wellcome Trust Sanger Institute”.

What was measured:
Assay in all cases: cells
D-247MG = type: functional, cell-based, Homo sapiens; details: Homo sapiens, D-247MG
Description: SANGER: Inhibition of human D-247MG cell growth in a cell viability assay.

D283 Med = type: functional, cell-based, Homo sapiens; details: Homo sapiens, D283 Med
Description: SANGER: Inhibition of human D-283MED cell growth in a cell viability assay.

D-502MG = type: functional, cell-based, Homo sapiens; details: Homo sapiens, D-502MG
Description: SANGER: Inhibition of human D-502MG cell growth in a cell viability assay.

DSH1 = type: functional, cell-based, Homo sapiens; details: Homo sapiens, DSH1;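 further: growth inhibition of human DSH1 cells, measured with a cell viability readout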
Description: SANGER: Inhibition of human DSH1 cell growth in a cell viability assay.

DU-4475 = type: functional, cell-based, Homo sapiens; details: Homo sapiens, DU-4475
Description: SANGER: Inhibition of human DU-4475 cell growth in a cell viability assay.

EM-2 = type: functional, cell-based, Homo sapiens; details: Homo sapiens, EM-2;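 further: growth inhibition of EM-2 cells, read out with a cell viability assay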
Description: SANGER: Inhibition of human EM-2 cell growth in a cell viability assay.

EW-11 = type: functional, cell-based, Homo sapiens; details: Homo sapiens, EW-11;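 further: growth inhibition of human EW-11 cells, measured with a cell viability assay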
Description: SANGER: Inhibition of human EW-11 cell growth in a cell viability assay.

EW-24 = type: functional, cell-based, Homo sapiens; details: Homo sapiens, EW-24;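 further: human EW-24 cancer cell line, growth inhibition read out via a cell viability assay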
Description: SANGER: Inhibition of human EW-24 cell growth in a cell viability assay.

EW-3 = type: functional, cell-based, Homo sapiens; details: Homo sapiens, EW-3;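 further: cell viability assay read-out, IC50 reflects inhibition of growth of the EW-3 cells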
Description: SANGER: Inhibition of human EW-3 cell growth in a cell viability assay.

GB-1 = type: functional, cell-based, Homo sapiens; details: Homo sapiens, GB-1;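 further: growth of GB-1 cells judged by a viability assay, IC50 marks the concentration inhibiting growth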
Description: SANGER: Inhibition of human GB-1 cell growth in a cell viability assay.

GI-1 = type: functional, cell-based, Homo sapiens; details: Homo sapiens, GI-1;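 further: growth inhibition of human GI-1 cells, measured with a cell viability readout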
Description: SANGER: Inhibition of human GI-1 cell growth in a cell viability assay.

GI-ME-N = type: functional, cell-based, Homo sapiens; details: Homo sapiens, GI-ME-N;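 further: growth inhibition of human GI-ME-N cells, read out with a cell viability assay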
Description: SANGER: Inhibition of human GI-ME-N cell growth in a cell viability assay.

GOTO = type: functional, cell-based, Homo sapiens; details: Homo sapiens, GOTO;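 further: growth inhibition of GOTO cells, read out by a cell viability assay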
Description: SANGER: Inhibition of human GOTO cell growth in a cell viability assay.

HDLM-2 = type: functional, cell-based, Homo sapiens; details: Homo sapiens, HDLM-2;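 further: cell viability assay measuring suppression of HDLM-2 proliferation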
Description: SANGER: Inhibition of human HDLM-2 cell growth in a cell viability assay.

HOP-62 = type: functional, cell-based, Homo sapiens; details: Homo sapiens, HOP-62;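 further: cell growth inhibition determined with a viability assay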
Description: SANGER: Inhibition of human HOP-62 cell growth in a cell viability assay.

IA-LM = type: functional, cell-based, Homo sapiens; details: Homo sapiens, IA-LM;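 further: cell viability assay measuring growth inhibition of human IA-LM cells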
Description: SANGER: Inhibition of human IA-LM cell growth in a cell viability assay.

IST-MES1 = type: functional, cell-based, Homo sapiens; details: Homo sapiens, IST-MES1;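 further: growth inhibition of IST-MES1 cells, measured with a cell viability assay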
Description: SANGER: Inhibition of human IST-MES1 cell growth in a cell viability assay.

IST-SL1 = type: functional, cell-based, Homo sapiens; details: Homo sapiens, IST-SL1;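 further: growth inhibition of human IST-SL1 cells, read out with a cell viability assay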
Description: SANGER: Inhibition of human IST-SL1 cell growth in a cell viability assay.

K5 = type: functional, cell-based, Homo sapiens; details: Homo sapiens, K5
Description: SANGER: Inhibition of human K5 cell growth in a cell viability assay.

KS-1 = type: functional, cell-based, Homo sapiens; details: Homo sapiens, KS-1;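 further: growth inhibition of KS-1 cells, read out with a cell viability assay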
Description: SANGER: Inhibition of human KS-1 cell growth in a cell viability assay.

MMAC-SF = type: functional, cell-based, Homo sapiens; details: Homo sapiens, MMAC-SF;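 further: growth inhibition of human MMAC-SF cells, read out with a cell viability assay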
Description: SANGER: Inhibition of human MMAC-SF cell growth in a cell viability assay.

MOLT-16 = type: functional, cell-based, Homo sapiens; details: Homo sapiens, MOLT-16;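 further: growth inhibition of human MOLT-16 cells, read out with a cell viability assay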
Description: SANGER: Inhibition of human MOLT-16 cell growth in a cell viability assay.

MPP-89 = type: functional, cell-based, Homo sapiens; details: Homo sapiens, MPP-89;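 further: growth inhibition of human MPP-89 cells, read out with a cell viability assay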
Description: SANGER: Inhibition of human MPP-89 cell growth in a cell viability assay.

MSTO-211H = type: functional, cell-based, Homo sapiens; details: Homo sapiens, MSTO-211H
Description: SANGER: Inhibition of human MSTO-211H cell growth in a cell viability assay.

NB13 = type: functional, cell-based, Homo sapiens; details: Homo sapiens, NB13;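 further: cell viability readout measuring growth inhibition of human NB13 cells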
Description: SANGER: Inhibition of human NB13 cell growth in a cell viability assay.

NB69 = type: functional, cell-based, Homo sapiens; details: Homo sapiens, NB69;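 further: growth inhibition of NB69 cells, determined by a cell viability assay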
Description: SANGER: Inhibition of human NB69 cell growth in a cell viability assay.

NCI-H1304 = type: functional, cell-based, Homo sapiens; details: Homo sapiens, NCI-H1304;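 further: growth inhibition of the cancer cell line, measured in a cell viability assay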
Description: SANGER: Inhibition of human NCI-H1304 cell growth in a cell viability assay.

NCI-H1355 = type: functional, cell-based, Homo sapiens; details: Homo sapiens, NCI-H1355;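 further: growth inhibition of human NCI-H1355 cells, read out by a cell viability assay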
Description: SANGER: Inhibition of human NCI-H1355 cell growth in a cell viability assay.

NCI-H1395 = type: functional, cell-based, Homo sapiens; details: Homo sapiens, NCI-H1395;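 further: cell viability assay read-out quantifying reduced proliferation of human NCI-H1395 cells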
Description: SANGER: Inhibition of human NCI-H1395 cell growth in a cell viability assay.

NCI-H510A = type: functional, cell-based, Homo sapiens; details: Homo sapiens, NCI-H510A;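 further: growth inhibition of NCI-H510A cells, read out with a cell viability assay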
Description: SANGER: Inhibition of human NCI-H510A cell growth in a cell viability assay.

NCI-H526 = type: functional, cell-based, Homo sapiens; details: Homo sapiens, NCI-H526;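 further: growth inhibition of the human NCI-H526 cell line, measured by a cell viability assay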
Description: SANGER: Inhibition of human NCI-H526 cell growth in a cell viability assay.

NCI-H747 = type: functional, cell-based, Homo sapiens; details: Homo sapiens, NCI-H747;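 further: growth inhibition of human NCI-H747 cells, read out by a cell viability assay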
Description: SANGER: Inhibition of human NCI-H747 cell growth in a cell viability assay.

OCUB-M = type: functional, cell-based, Homo sapiens; details: Homo sapiens, OCUB-M;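 further: growth inhibition of the cancer cell line, read out through a cell viability assay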
Description: SANGER: Inhibition of human OCUB-M cell growth in a cell viability assay.

OS-RC-2 = type: functional, cell-based, Homo sapiens; details: Homo sapiens, OS-RC-2;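 further: growth inhibition of human OS-RC-2 cells, measured by a cell viability assay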
Description: SANGER: Inhibition of human OS-RC-2 cell growth in a cell viability assay.

RCC10RGB = type: functional, cell-based, Homo sapiens; details: Homo sapiens, RCC10RGB;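 further: growth inhibition of human RCC10RGB cells, read out by a cell viability assay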
Description: SANGER: Inhibition of human RCC10RGB cell growth in a cell viability assay.

RS4-11 = type: functional, cell-based, Homo sapiens; details: Homo sapiens, RS4-11;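 further: growth inhibition of RS4-11 cells, read out by a cell viability assay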
Description: SANGER: Inhibition of human RS4-11 cell growth in a cell viability assay.

Ramos-2G6-4C10 = type: functional, cell-based, Homo sapiens; details: Homo sapiens, Ramos-2G6-4C10;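 further: growth inhibition of the cell line, measured by a cell viability read-out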
Description: SANGER: Inhibition of human Ramos-2G6-4C10 cell growth in a cell viability assay.

SK-MEL-1 = type: functional, cell-based, Homo sapiens; details: Homo sapiens, SK-MEL-1;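 further: growth inhibition of human SK-MEL-1 cells, read out by a cell viability assay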
Description: SANGER: Inhibition of human SK-MEL-1 cell growth in a cell viability assay.

SK-NEP-1 = type: functional, cell-based, Homo sapiens; details: Homo sapiens, SK-NEP-1;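 further: growth inhibition of human SK-NEP-1 cells, read out by a cell viability assay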
Description: SANGER: Inhibition of human SK-NEP-1 cell growth in a cell viability assay.

SNU-C2B = type: functional, cell-based, Homo sapiens; details: Homo sapiens, SNU-C2B;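 further: cell viability readout used to measure compound-driven suppression of SNU-C2B cell proliferation, IC50 marking half-maximal growth inhibition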
Description: SANGER: Inhibition of human SNU-C2B cell growth in a cell viability assay.

BE-13 = type: functional, cell-based, Homo sapiens; details: Homo sapiens, BE-13;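 further: growth inhibition of human BE-13 cells, measured with a cell viability assay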
Description: SANGER: Inhibition of human BE-13 cell growth in a cell viability assay.

C2BBe1 = type: functional, cell-based, Homo sapiens; details: Homo sapiens, C2BBe1;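 further: growth inhibition of C2BBe1 cells, read out through a viability assay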
Description: SANGER: Inhibition of human C2BBe1 cell growth in a cell viability assay.

TE-11 = type: functional, cell-based, Homo sapiens; details: Homo sapiens, TE-11;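 further: growth inhibition of human TE-11 cells, read out by a cell viability assay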
Description: SANGER: Inhibition of human TE-11 cell growth in a cell viability assay.

TE-6 = type: functional, cell-based, Homo sapiens; details: Homo sapiens, TE-6;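 further: growth inhibition of TE-6 cells, read out with a cell viability assay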
Description: SANGER: Inhibition of human TE-6 cell growth in a cell viability assay.

TK-10 = type: functional, cell-based, Homo sapiens; details: Homo sapiens, TK-10;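 further: growth inhibition of TK-10 cells, read out in a cell viability assay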
Description: SANGER: Inhibition of human TK10 cell growth in a cell viability assay.

U-266 = type: functional, cell-based, Homo sapiens; details: Homo sapiens, U-266
Description: SANGER: Inhibition of human U-266 cell growth in a cell viability assay.

U-87 MG = type: functional, cell-based, Homo sapiens, U-87MG ATCC; details: Homo sapiens, U-87 MG;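 further: growth inhibition of the cells measured with a viability assay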
Description: SANGER: Inhibition of human U-87-MG cell growth in a cell viability assay.

CAS-1 = type: functional, cell-based, Homo sapiens; details: Homo sapiens, CAS-1;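 further: growth inhibition of CAS-1 cells, measured with a cell viability assay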
Description: SANGER: Inhibition of human CAS-1 cell growth in a cell viability assay.

CGTH-W-1 = type: functional, cell-based, Homo sapiens; details: Homo sapiens, CGTH-W-1;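 further: growth inhibition of human CGTH-W-1 cells measured by cell viability assay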
Description: SANGER: Inhibition of human CGTH-W-1 cell growth in a cell viability assay.

Work on Nc1cccc2c1CN(C1CCC(=O)NC1=O)C2=O (stereo not drawn) [LENALIDOMIDE] yielded an IC50 (D-247MG) of over 5000 nM, an IC50 (D283 Med) of over 5000 nM and an IC50 (D-502MG) of over 5000 nM. It also gave an IC50 (DSH1) of over 5000 nM, an IC50 (DU-4475) of over 5000 nM and an IC50 (EM-2) of over 5000 nM. For the same compound, the IC50 (EW-11) was over 5000 nM, the IC50 (EW-24) was over 5000 nM and the IC50 (EW-3) was over 5000 nM. For the same compound, the IC50 (GB-1) was over 5000 nM, the IC50 (GI-1) was over 5000 nM and the IC50 (GI-ME-N) was over 5000 nM. The IC50 (GOTO) was over 5000 nM, the IC50 (HDLM-2) was over 5000 nM and the IC50 (HOP-62) was over 5000 nM. For the same compound, the IC50 (IA-LM) was over 5000 nM, the IC50 (IST-MES1) was over 5000 nM and the IC50 (IST-SL1) was over 5000 nM. It also gave an IC50 (K5) of over 5000 nM, an IC50 (KS-1) of over 5000 nM and an IC50 (MMAC-SF) of over 5000 nM. It also gave an IC50 (MOLT-16) of over 5000 nM, an IC50 (MPP-89) of over 5000 nM and an IC50 (MSTO-211H) of over 5000 nM. For the same compound, the IC50 (NB13) was over 5000 nM, the IC50 (NB69) was over 5000 nM and the IC50 (NCI-H1304) was over 5000 nM. The IC50 (NCI-H1355) was over 5000 nM, the IC50 (NCI-H1395) was over 5000 nM and the IC50 (NCI-H510A) was over 5000 nM. The IC50 (NCI-H526) was over 5000 nM, the IC50 (NCI-H747) was over 5000 nM and the IC50 (OCUB-M) was over 5000 nM. The IC50 (OS-RC-2) was over 5000 nM, the IC50 (RCC10RGB) was over 5000 nM and the IC50 (RS4-11) was over 5000 nM. It also gave an IC50 (Ramos-2G6-4C10) of over 5000 nM, an IC50 (SK-MEL-1) of over 5000 nM and an IC50 (SK-NEP-1) of over 5000 nM. It also gave an IC50 (SNU-C2B) of over 5000 nM, an IC50 (BE-13) of over 5000 nM and an IC50 (C2BBe1) of over 5000 nM. It also gave an IC50 (TE-11) of over 5000 nM, an IC50 (TE-6) of over 5000 nM and an IC50 (TK-10) of over 5000 nM. It also gave an IC50 (U-266) of over 5000 nM, an IC50 (U-87 MG) of over 5000 nM and an IC50 (CAS-1) of over 5000 nM. It also gave an IC50 (CGTH-W-1) of over 5000 nM.
For Cc1cn(-c2cc(NC(=O)c3ccc(C)c(Nc4nccc(-c5cccnc5)n4)c3)cc(C(F)(F)F)c2)cn1 [NILOTINIB], the IC50 (D-247MG) was over 2000 nM, the IC50 (D283 Med) was over 2000 nM and the IC50 (D-502MG) was over 2000 nM. For the same compound, the IC50 (DSH1) was over 2000 nM, the IC50 (DU-4475) was over 2000 nM and the IC50 (EM-2) was 4.1 nM. For the same compound, the IC50 (EW-11) was over 2000 nM, the IC50 (EW-24) was over 2000 nM and the IC50 (EW-3) was over 2000 nM. The IC50 (GB-1) was over 2000 nM, the IC50 (GI-1) was over 2000 nM and the IC50 (GI-ME-N) was over 2000 nM. For the same compound, the IC50 (GOTO) was over 2000 nM, the IC50 (HDLM-2) was over 2000 nM and the IC50 (HOP-62) was 1820 nM. It also gave an IC50 (IA-LM) of over 2000 nM, an IC50 (IST-MES1) of over 2000 nM and an IC50 (IST-SL1) of over 2000 nM. For the same compound, the IC50 (K5) was over 2000 nM, the IC50 (KS-1) was over 2000 nM and the IC50 (MMAC-SF) was over 2000 nM. The IC50 (MOLT-16) was over 2000 nM, the IC50 (MPP-89) was over 2000 nM and the IC50 (MSTO-211H) was over 2000 nM. For the same compound, the IC50 (NB13) was over 2000 nM, the IC50 (NB69) was over 2000 nM and the IC50 (NCI-H1304) was over 2000 nM. The IC50 (NCI-H1355) was over 2000 nM, the IC50 (NCI-H1395) was over 2000 nM and the IC50 (NCI-H510A) was over 2000 nM. The IC50 (NCI-H526) was over 2000 nM, the IC50 (NCI-H747) was over 2000 nM and the IC50 (OCUB-M) was over 2000 nM. The IC50 (OS-RC-2) was over 2000 nM, the IC50 (RCC10RGB) was over 2000 nM and the IC50 (RS4-11) was over 2000 nM. It also gave an IC50 (Ramos-2G6-4C10) of over 2000 nM, an IC50 (SK-MEL-1) of over 2000 nM and an IC50 (SK-NEP-1) of over 2000 nM. For the same compound, the IC50 (SNU-C2B) was over 2000 nM, the IC50 (BE-13) was 1270 nM and the IC50 (C2BBe1) was over 2000 nM. The IC50 (TE-11) was over 2000 nM, the IC50 (TE-6) was over 2000 nM and the IC50 (TK-10) was over 2000 nM. For the same compound, the IC50 (U-266) was over 2000 nM, the IC50 (U-87 MG) was over 2000 nM and the IC50 (CAS-1) was over 2000 nM. The IC50 (CGTH-W-1) was 649 nM.
